Experimental data taken from patent US20220241422A1, “DRUG DELIVERY COMPOSITION AND PHARMACEUTICAL COMPOSITION” (Nihon University, priority 2019, published 2022).

Key:
ALS model mice (G93A) = assay: Nasal administration test for NAC/PEG-PCL-Tat in ALS model mice (Rota-Rod motor function); format: in vivo, mouse; settings: nasal administration 105 to 120 days of age, 5 days a week; compared with untreated
Description: A drug solution was prepared by dissolving NAC in HEPES buffer solution (pH 7.4) at a concentration of 50 mg/mL.
The drug solution was administered to G93A for a period from 105 days of age (15 weeks of age) after birth to 120 days of age, at a frequency of 5 days a week. […] Under inhalation anesthesia using a mask in which the vicinity of the nostrils could be opened or closed, 2 μL each of the drug solution was alternately administered to the right and left nasal cavities every 30 seconds using a micropipette (see FIG. 3). Only male mice were used for the test, and in principle, administration was performed in the morning (10:00 to 12:00).
The motor function was evaluated using Rota-Rod (Muromachi Kikai Co., Ltd.). In order to acclimatize mice to Rota-Rod, mice were trained from 3 weeks (12 weeks of age) before the day of measurement initiation. The rotation speed of Rota-Rod was set to 24 times/minute. The measurement was performed twice a week, and the time (seconds) taken until the mouse fell from Rota-Rod was measured. The cut-off value was set to 300 seconds, while in the case of falling, the average value of three times was used as the score for that day, and measurements were taken up to 122 days after birth.

[1] = system: ALS model mice (G93A SOD1 transgenic mouse); assay: Oral administration test for NAC in ALS model mice (Rota-Rod motor function, survival time); format: in vivo; settings: oral administration from 15 weeks of age, vs water-administered group
Description: NAC is considered to be effective for treating ALS as a result of its effect of removing active oxygen. Thus, NAC was used as a test drug for ALS treatment.
As a test animal, G93A SOD1 transgenic mouse (G93A), which is one of the ALS model animals, was used. […] The research group of the present inventors has already reported the characteristics of the change (progression) in the motor dysfunction of this G93A (Miyagisi H et al., J Pharmacol Sci., 118, 225-236 (2012)).
NAC was orally administered to G93A from 15 weeks of age (105 days of age) after the onset of ALS, and the motor function and the survival time were examined. Water was orally administered as a negative control.
The motor function was evaluated using Rota-Rod (Muromachi Kikai Co., Ltd.). in order to acclimatize mice to Rota-Rod, mice were trained from 3 weeks (12 weeks of age) before the day of measurement initiation. The rotation speed of Rota-Rod was set to 24 times/minute. The measurement was performed twice a week, and the time (seconds) taken until the mouse fell from Rota-Rod was measured. The cut-off value was set to 300 seconds, while in the case of falling, the average value of three times was used as the score for that day, and measurements were taken up to 133 days after birth.

For `CC(=O)N[C@@H](CS)C(=O)O` [NAC, N-Acetyl-Cysteine], the “suppression of hypanakinesia (Rota-Rod, FIG. 4A)” value (ALS model mice (G93A)) was “hypanakinesia was suppressed”, the “motor function (Rota-Rod)” value [1] was “no difference” and the survival time [1] was “no difference”.
